This note sets out measurements from US20090232849A1 (priority 2005, published 2009).

Structures are written as SMILES. Where “and” joins values, the source holds several entries; their conditions need not be identical. Equal values may be shown once. Entries after “also recorded” stand apart in the source; their conditions may differ.

This test has as its system TLT tumor. More on the design: species or system mice. The following applies: mouse, in vivo.

As to `O=P1(N(CCCl)CCCl)NCCCO1` (centres unmarked) [cyclophosphamide], the “regrowth delay to double tumour diameter” value was 7.73 ± 0.38 days and 7.7 ± 0.4 days. The “effect of cyclophosphamide alone on regrowth delay” value (50 mg/kg) is “No difference in regrowth delay; also recorded: just below the efficacy threshold”.
